Reference: patent US20150306096A1, “8'-HYDROXY-DIHYDROERGOTAMINE COMPOUNDS AND COMPOSITIONS” (MAP Pharmaceuticals, Inc., priority 2012, published 2015)
pIC50: −log10 of the molar value. Where two headings read alike, the source gives them in different places.

How the values were obtained:
human 5-HT1D receptor = target: T1, human 5-HT1D receptor (Homo sapiens, UniProt P28221); test: Radioligand competition binding and kinetics, CHO-K1 membranes
T1 construct: purchased Euroscreen; host or cells: CHO-K1
Method: (§1) For kinetics of radioligand competitive binding, serial dilutions were performed from master solution in 100% DMSO to obtain intermediate concentrations 200-fold higher than the concentrations to be tested. Each test sample was diluted 100-fold in the assay buffer and dispensed into the test plate.
5-HT1D Radioligand Binding Assay
Assay buffer: 50 mM Tris (pH 7.4), 4 mM CaCl2, 0.1% ascorbic acid
Washing buffer: 50 mM Tris (pH 7.4)
Membrane: recombinant CHO-K1-5-HT1D membranes thawed on ice and diluted in assay buffer (10 μg/well)
Ligand: 5-HT (Sigma, H-9523)
Radioligand: [^3H]-CT (Perkin Elmer, TRK1038, diluted in assay buffer for a final concentration of 0.5 nM) Filter plate: GF/B Unifilter plate (Perkin Elmer, 6005177) presoaked in 0.5% PEI for 2 hours at RT.
(§2) Determination of the Kon constant. Radioligand association kinetics on each receptor were performed by adding in the wells of a 96 well plate 50 μL of radioligand and 50 μL of membrane extracts. The samples were incubated for the times reported in Table 3 below at a temperature optimized for each receptor and filtered over a filter plate. After washing the filters 5 times with 0.5 mL of ice-cold washing buffer, 50 μL of Microscint 20 (Packard) were added to the filters and the plates were incubated 15 min on an orbital shaker and then counted for 1 min/well. This allowed determination of the kobs for each radioligand. Association kinetics were performed at 5 different radioligand concentrations optimized for each receptor (see Table 3 below) to determine 5 different kobs. The different kobs were then plotted against the [radioligand] and the K. was calculated using the following equation: kon=(kobs−koff)[radioligand].
(§3) Determination of the Koff constant. Radioligand dissociation kinetics on each receptor were performed by adding in the wells of a 96 well plate 45 μL of radioligand and 45 μL of membrane extracts. The samples were incubated as reported in Table 4 below at a temperature optimized for each receptor until binding equilibrium was reached as determined by the association kinetics experiment. Then, 100 μL of cold competitor (reference ligand) were added at a 200 fold excess (final concentration) for the times reported in Table 4 at the optimized temperature. The samples were then filtered over a filter plate. After washing the filters 5 times with 0.5 mL of ice-cold washing buffer, 50 μL of Microscint 20 (Packard) were added to the filters and the plates were incubated 15 min on an orbital shaker and then counted for 1 min/well. This allowed determination of the koff for each radioligand.
(§4) Determination of IC50 and Ki constant for each test compound. Radioligand competition binding on each receptor were performed by adding in the wells of a 96 well plate […] of test compound at increasing concentration as reported in Table 5 below, 25 μL of radioligand and 25 μL of membrane extracts. The samples were incubated for 60 min (or 4 hours for a second experiment on 5-HT2B receptors) at a temperature optimized for each receptor and then filtered over a filter plate. After washing the filters 5 times with 0.5 mL of ice-cold washing buffer, 50 μL of Microscint 20 (Packard) were added to the filters and the plates were incubated 15 min on an orbital shaker and then counted for 1 min/well. The test compounds were tested in duplicate at the nanomolar concentrations reported below in Table 5.
Determination of kon and koff constants for each test compound. Each compound was first assessed in a pilot experiment to evaluate its effect on the kinetic binding of each receptor-radioligand pair. These pilot experiments were performed at on compound concentration and were composed of 10 time-points measurements in duplicate (2, 5, 10, 20, 30, 45, 60, 90, 120 and 150 minutes).

human D2L receptor = target: T2, human D2L receptor (Homo sapiens, UniProt P14416); test: as above
T2 construct: purchased Euroscreen; host or cells: CHO-K1
Method: as §1
D2L Radioligand Binding Assay
Assay buffer: 25 mM HEPES (pH 7.4), 5 mM MgCl2, 1 mM CaCl2, BSA protease free 0.5% Washing buffer: 25 mM HEPES (pH 7.4), 5 mM MgCl2, 1 mM CaCl2 Membrane: recombinant CHO-K1-D2L membranes thawed on ice and diluted in assay buffer (2 μg/well)
Ligand: Risperidone (Tocris Bioscience, 2865)
Radioligand: [^3H]-Spiperone (TRK818, diluted in assay buffer for a final concentration of 3 nM) Filter plate: GF/B Unifilter plate (Perkin Elmer, 6005177) presoaked in 0.5% PEI for 2 hours at RT.
as §2, §3, §4
Determination of kon and koff constants for each test compound. Each compound was first assessed in a pilot experiment to evaluate its effect on the kinetic binding of each receptor-radioligand pair. These pilot experiments were performed at on compound concentration and were composed of 10 time-points measurements in duplicate (2, 5, 10, 20, 30, 45, 60, 90, 120 and 150 minutes). […]

Calcitonin (CGRP) = target: T3, Calcitonin (CGRP) (Homo sapiens, UniProt O60894+Q16602); test: Aequorin assay; assay type: cell-based; settings: CGRP receptor
T3 construct: expressed in transfected cells; host or cells: CHO-K1 with apoaequorin (CHO-AEQ)
Method: Additional receptor agonist/agonist activity assessments were performed using the 8′-OH DHE test compound. Table 12 contains a summary of the cell lines (CHO-K1/HEK293 transfected with relevant human receptor) and the assays performed to detect any agonist or antagonist activity.
Aequorin assays were conducted to monitor activity for 8′-OH DHE against the receptors indicated in Table 12 above (except for mGlu3 and mGlu5). CHO-K1 cells co-expressing mitochondrial apoaequorin and the recombinant human receptor of interest were grown to mid-log phase in culture media without antibiotics and then detached with PBS-EDTA, centrifuged and resuspended in assay buffer (DMEMHAM's F12 with HEPES, without phenol red+0.1% BSA, protease free) at a concentration of 1×10^6 cell/mL. Cells were incubated at RT for at least 4 hours with coelenterazine h. […]
50 μL of the cell suspension was mixed with 50 μL of test or reference agonist in a 96-well plate. The resulting emission of light was recorded using Hamamatsu Functional Drug Screening System 6000 (FDSS 6000) luminometer. […] The resulting emission of light was recorded using the FDSS 6000 luminometer. To standardize the emission of recorded light (and determine of the ‘100% signal’) across plates and across different experiments, some wells contained 100 μM digitonin or a saturating concentration of ATP (20 μM).

T2 sequence (P14416 whole entry): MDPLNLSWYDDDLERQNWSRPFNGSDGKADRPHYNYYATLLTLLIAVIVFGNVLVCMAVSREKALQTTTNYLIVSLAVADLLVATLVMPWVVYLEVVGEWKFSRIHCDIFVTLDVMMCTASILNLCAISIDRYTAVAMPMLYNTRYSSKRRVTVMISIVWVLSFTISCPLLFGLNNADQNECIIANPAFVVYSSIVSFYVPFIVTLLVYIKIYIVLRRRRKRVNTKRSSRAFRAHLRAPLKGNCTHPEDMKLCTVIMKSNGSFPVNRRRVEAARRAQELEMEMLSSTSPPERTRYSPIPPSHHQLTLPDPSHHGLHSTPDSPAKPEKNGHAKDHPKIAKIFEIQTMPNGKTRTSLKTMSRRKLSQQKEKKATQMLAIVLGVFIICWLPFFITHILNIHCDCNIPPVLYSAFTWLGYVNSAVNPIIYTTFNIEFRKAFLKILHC
T1 sequence (P28221 whole entry): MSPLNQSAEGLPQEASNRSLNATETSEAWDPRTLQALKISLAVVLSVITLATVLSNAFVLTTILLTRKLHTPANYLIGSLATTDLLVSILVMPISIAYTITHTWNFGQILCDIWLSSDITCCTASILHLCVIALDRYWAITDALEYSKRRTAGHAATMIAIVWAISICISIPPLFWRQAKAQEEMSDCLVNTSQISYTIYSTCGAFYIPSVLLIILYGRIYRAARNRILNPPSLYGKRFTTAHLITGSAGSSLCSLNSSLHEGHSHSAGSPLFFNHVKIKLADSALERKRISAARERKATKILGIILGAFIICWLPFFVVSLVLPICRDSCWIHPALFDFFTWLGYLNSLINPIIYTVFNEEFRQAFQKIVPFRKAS
T3 sequence (Q16602 23-461): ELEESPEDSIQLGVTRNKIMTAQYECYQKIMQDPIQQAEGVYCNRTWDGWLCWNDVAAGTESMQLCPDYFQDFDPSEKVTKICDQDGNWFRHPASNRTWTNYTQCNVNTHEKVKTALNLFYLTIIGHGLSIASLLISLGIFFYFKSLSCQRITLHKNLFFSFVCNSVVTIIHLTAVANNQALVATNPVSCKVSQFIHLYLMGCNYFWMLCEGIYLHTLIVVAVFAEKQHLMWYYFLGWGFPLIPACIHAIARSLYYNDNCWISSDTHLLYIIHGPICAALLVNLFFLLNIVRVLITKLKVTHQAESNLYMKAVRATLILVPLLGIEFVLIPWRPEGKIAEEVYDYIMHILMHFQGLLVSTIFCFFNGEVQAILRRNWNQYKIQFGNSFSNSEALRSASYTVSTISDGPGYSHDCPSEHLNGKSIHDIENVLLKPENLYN
T3 sequence (O60894 27-148 partner): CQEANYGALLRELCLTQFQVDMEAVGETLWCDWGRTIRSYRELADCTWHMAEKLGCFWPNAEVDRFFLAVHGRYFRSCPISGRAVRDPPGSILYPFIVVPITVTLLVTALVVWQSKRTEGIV

Row | SMILES | Avg Dissociation half-life (human 5-HT1D receptor; 5-HT1D) [min] | Avg Koff (human 5-HT1D receptor; 5-HT1D) [s⁻¹] | pIC50 (human 5-HT1D receptor; 5-HT1D, [3H]-CT, read-out: IC50 from binding assay) | Avg Dissociation half-life (human D2L receptor; D2L) [min] | Avg Koff (human D2L receptor; D2L) [s⁻¹] | pIC50 (human D2L receptor; D2L, [3H]-Spiperone, read-out: IC50 from binding assay) | Activity (Agonism: EC50; Antagonism: IC50) (Calcitonin (CGRP)) | pIC50 (human 5-HT1D receptor) | koff (human 5-HT1D receptor; read-out: Avg Koff) [s⁻¹] | pIC50 (human D2L receptor) | koff (human D2L receptor; D2L) [s⁻¹]
1 | CN1C[C@H](C(=O)N[C@]2(C)O[C@@]3(O)[C@@H]4CCC(O)N4C(=O)[C@H](Cc4ccccc4)N3C2=O)C[C@@H]2c3cccc4[nH]cc(c34)C[C@H]21 (stereo partly shown) [8′-OH DHE, 8′-Hydroxy-Dihydroergotamine] | 66 | 0.000175 | 9.10 | 9 | 0.00127 | 6.53 | Inactive |  |  |  | 
2 | CN1C[C@H](C(=O)N[C@]2(C)O[C@@]3(O)[C@@H]4CCCN4C(=O)[C@H](Cc4ccccc4)N3C2=O)C[C@@H]2c3cccc4[nH]cc(c34)C[C@H]21 [DHE, Dihydroergotamine] | 76.8 |  |  | 14.4 |  |  |  | 9.19 | 0.00015 | 6.64 | 0.000792
